Legend:
Test in all cases: scanMax kinase panel (Eurofins)
Type in all cases: binding
[1] = target: T1, KIT(D816V) (Homo sapiens, UniProt P10721, D816V); conditions: read-out: % control
T1 construct: purchased Eurofins
Experimental: (§1) The following assay method was performed to evaluate the inhibitory activities of a compound according to the present invention with respect to various enzymes. […] The compound was applied to the enzyme at a concentration of 1 μM, dissolved in DMSO, and the % control was determined according to Equation 1 below.
(§2) Here, the positive control refers to a compound corresponding to 0% control, and the negative control refers to a compound corresponding to 100% control.

[2] = target: T2, GSK3A (Homo sapiens, UniProt P49840); conditions: read-out: % control
T2 construct: purchased Eurofins scanMax® kinase panel
T2 sequence (P49840 whole entry): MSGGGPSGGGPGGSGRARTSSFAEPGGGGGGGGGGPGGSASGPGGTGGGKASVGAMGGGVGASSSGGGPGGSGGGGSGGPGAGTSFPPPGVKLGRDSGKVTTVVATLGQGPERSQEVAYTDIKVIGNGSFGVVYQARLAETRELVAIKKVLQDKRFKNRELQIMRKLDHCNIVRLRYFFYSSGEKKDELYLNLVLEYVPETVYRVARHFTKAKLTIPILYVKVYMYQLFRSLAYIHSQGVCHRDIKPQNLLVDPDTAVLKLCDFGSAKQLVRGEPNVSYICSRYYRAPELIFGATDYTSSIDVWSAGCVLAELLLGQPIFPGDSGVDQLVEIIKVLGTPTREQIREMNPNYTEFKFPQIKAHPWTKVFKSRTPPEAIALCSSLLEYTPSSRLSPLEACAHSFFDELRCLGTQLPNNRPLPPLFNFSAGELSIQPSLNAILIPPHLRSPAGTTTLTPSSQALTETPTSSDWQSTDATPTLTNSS
Experimental: as §1, §2

[3] = target: T3, MEKI (Homo sapiens, UniProt Q02750); conditions: read-out: % control
T3 construct: purchased Eurofins
Experimental: as §1, §2

[4] = target: T4, ROCKI (Homo sapiens, UniProt Q13464); conditions: read-out: % control
T4 construct: purchased Eurofins scanMax kinase panel
Experimental: as §1, §2

[5] = target: T5, ERK8 (Homo sapiens, UniProt Q8TD08); conditions: ERK8, 1 μM; read-out: % control
T5 construct: purchased Eurofins scanMax® kinase panel
T5 sequence (Q8TD08 whole entry): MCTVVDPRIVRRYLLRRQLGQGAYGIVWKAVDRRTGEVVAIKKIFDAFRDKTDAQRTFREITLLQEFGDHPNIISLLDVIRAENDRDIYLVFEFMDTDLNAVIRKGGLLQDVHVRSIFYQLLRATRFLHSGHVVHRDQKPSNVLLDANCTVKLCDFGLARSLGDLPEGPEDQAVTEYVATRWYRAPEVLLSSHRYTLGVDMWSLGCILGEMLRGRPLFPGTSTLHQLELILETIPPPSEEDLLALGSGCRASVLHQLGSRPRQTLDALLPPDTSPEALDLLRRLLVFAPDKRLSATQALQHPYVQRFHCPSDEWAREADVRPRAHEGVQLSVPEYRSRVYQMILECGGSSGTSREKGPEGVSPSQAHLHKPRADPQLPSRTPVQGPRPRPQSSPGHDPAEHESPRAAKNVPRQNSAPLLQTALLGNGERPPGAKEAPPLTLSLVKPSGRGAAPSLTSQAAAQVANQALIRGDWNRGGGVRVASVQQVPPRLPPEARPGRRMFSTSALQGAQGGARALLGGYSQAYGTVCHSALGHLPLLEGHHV
Experimental: as §1, §2

[6] = target: T6, ABL1(E255K)-phosphorylated (Homo sapiens, UniProt P00519, E255K); conditions: read-out: % control
T6 construct: purchased Eurofins
Experimental: as §1, §2

[7] = target: T7, CDK7 (Homo sapiens, UniProt P50613); conditions: CDK7, 1 μM; read-out: % control
T7 construct: purchased Eurofins scanMax® kinase panel
Experimental: as §1, §2

[8] = target: T8, RET(V804M) (Homo sapiens, UniProt P07949, V804M); conditions: read-out: % control
T8 construct: purchased Eurofins scanMax kinase panel
T8 sequence (P07949 29-1114 V804M): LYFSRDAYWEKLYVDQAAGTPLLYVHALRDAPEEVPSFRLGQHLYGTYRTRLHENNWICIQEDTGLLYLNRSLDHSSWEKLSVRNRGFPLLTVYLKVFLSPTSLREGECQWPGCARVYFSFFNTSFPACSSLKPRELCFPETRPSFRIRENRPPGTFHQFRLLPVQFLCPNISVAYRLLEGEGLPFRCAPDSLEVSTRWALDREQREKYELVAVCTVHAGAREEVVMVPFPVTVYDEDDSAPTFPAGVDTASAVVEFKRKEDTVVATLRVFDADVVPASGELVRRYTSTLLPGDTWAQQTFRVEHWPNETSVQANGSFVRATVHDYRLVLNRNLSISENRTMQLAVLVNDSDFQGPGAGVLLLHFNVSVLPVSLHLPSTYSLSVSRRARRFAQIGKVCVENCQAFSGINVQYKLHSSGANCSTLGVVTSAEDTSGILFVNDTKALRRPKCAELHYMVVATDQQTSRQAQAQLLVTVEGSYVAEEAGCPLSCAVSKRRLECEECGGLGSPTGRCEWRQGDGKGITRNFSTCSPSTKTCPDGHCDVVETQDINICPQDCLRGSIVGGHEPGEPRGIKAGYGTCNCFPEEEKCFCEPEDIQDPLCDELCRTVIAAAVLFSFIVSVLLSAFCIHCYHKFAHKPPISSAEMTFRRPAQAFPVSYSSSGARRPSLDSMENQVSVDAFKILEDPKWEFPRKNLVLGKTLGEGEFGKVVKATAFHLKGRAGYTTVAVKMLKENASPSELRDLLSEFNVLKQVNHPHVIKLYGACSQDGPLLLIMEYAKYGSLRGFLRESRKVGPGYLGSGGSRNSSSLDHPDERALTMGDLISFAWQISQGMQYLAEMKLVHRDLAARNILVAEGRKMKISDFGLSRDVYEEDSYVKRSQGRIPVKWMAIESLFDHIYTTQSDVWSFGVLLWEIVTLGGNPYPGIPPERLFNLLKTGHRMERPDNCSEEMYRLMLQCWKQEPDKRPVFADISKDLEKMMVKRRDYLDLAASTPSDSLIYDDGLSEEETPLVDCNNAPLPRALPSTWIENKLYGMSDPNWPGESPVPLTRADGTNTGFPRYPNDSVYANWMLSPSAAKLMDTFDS
Experimental: as §1, §2

[9] = target: T9, ERK3 (Homo sapiens, UniProt Q16659); conditions: ERK3, 1 μM; read-out: % control
T9 construct: purchased Eurofins scanMax® kinase panel
T9 sequence (Q16659 whole entry): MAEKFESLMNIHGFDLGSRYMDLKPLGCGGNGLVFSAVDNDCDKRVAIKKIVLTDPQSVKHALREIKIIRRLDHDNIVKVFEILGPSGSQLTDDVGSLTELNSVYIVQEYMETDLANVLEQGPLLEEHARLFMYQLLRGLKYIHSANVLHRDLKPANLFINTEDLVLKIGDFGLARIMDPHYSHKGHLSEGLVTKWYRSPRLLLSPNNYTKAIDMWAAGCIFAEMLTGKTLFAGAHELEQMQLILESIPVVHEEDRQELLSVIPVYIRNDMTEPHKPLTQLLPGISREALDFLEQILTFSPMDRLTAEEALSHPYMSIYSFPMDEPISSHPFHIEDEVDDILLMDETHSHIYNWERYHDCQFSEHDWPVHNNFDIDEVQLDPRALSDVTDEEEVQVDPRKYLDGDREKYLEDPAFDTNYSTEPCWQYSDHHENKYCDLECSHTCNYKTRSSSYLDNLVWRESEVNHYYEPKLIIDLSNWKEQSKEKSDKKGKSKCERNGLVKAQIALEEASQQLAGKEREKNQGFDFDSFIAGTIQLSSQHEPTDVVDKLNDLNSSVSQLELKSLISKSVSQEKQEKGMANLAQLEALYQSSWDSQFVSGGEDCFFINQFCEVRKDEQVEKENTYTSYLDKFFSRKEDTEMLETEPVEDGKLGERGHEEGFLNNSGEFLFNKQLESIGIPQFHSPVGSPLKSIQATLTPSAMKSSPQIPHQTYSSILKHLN
Experimental: as §1, §2

[10] = target: T10, RET(V804L) (Homo sapiens, UniProt P07949, V804L); conditions: read-out: % control
T10 construct: purchased Eurofins scanMax kinase panel
T10 sequence (P07949 29-1114 V804L): as the sequence (P07949 29-1114 V804M) above, with M776L counted along it
Experimental: as §1, §2

[11] = test system: PAK5; conditions: PAK5, 1 μM
Experimental: as §1, §2

[12] = target: T11, TRKA (Homo sapiens, UniProt P04629); conditions: read-out: % control
T11 construct: purchased Eurofins scanMax kinase panel
Experimental: as §1, §2

[13] = target: T12, MAP3K3 (Homo sapiens, UniProt Q99759); conditions: MAP3K3, 1 μM; read-out: % control
T12 construct: purchased Eurofins
Experimental: as §1, §2

[14] = target: T13, KIT(D816H) (Homo sapiens, UniProt P10721, D816H); conditions: read-out: % control
T13 construct: purchased Eurofins
T13 sequence (P10721 26-976 D816H): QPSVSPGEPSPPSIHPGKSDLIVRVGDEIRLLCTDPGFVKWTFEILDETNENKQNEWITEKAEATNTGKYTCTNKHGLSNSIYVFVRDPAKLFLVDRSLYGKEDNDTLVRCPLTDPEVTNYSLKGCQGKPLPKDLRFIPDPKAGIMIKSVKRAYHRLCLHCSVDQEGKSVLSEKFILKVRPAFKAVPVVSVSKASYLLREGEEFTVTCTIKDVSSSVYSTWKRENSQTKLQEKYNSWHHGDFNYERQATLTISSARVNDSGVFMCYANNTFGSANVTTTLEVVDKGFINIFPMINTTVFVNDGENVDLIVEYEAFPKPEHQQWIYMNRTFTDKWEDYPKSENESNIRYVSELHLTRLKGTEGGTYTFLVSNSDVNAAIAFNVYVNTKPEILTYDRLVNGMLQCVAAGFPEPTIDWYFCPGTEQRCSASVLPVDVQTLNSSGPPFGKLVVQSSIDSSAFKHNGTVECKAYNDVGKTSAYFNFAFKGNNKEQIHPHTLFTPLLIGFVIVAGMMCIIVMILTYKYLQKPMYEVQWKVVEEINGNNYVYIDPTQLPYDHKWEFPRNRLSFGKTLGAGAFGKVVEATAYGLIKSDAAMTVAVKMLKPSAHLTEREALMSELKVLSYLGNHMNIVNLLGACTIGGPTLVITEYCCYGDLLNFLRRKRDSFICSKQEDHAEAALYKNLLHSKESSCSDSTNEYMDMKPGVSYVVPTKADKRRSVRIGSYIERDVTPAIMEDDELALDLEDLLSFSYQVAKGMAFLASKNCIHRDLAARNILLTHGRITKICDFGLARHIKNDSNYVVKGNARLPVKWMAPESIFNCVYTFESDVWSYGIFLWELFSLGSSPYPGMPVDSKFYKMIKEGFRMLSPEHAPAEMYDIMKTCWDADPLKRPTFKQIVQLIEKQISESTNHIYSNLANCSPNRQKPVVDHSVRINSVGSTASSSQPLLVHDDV
Experimental: as §1, §2

[15] = target: T14, TRKC (Homo sapiens, UniProt Q16288); conditions: read-out: % control
T14 construct: purchased Eurofins scanMax kinase panel
Experimental: as §1, §2

[16] = target: T15, IRAKI (Homo sapiens, UniProt P51617); conditions: read-out: % control
T15 construct: purchased Eurofins
Experimental: as §1, §2

[17] = target: T16, RET(M918T) (Homo sapiens, UniProt P07949, M918T); conditions: read-out: % control
T16 construct: purchased Eurofins scanMax kinase panel
T16 sequence (P07949 29-1114 M918T): as the sequence (P07949 29-1114 V804M) above, with M776V, M890T counted along it
Experimental: as §1, §2

[18] = target: T17, HIPK4 (Homo sapiens, UniProt Q8NE63); conditions: HIPK4, 1 μM; read-out: % control
T17 construct: purchased Eurofins
Experimental: as §1, §2

[19] = target: T18, MEK4 (Homo sapiens, UniProt P45985); conditions: MEK4, 1 μM; read-out: % control
T18 construct: purchased Eurofins
T18 sequence (P45985 whole entry): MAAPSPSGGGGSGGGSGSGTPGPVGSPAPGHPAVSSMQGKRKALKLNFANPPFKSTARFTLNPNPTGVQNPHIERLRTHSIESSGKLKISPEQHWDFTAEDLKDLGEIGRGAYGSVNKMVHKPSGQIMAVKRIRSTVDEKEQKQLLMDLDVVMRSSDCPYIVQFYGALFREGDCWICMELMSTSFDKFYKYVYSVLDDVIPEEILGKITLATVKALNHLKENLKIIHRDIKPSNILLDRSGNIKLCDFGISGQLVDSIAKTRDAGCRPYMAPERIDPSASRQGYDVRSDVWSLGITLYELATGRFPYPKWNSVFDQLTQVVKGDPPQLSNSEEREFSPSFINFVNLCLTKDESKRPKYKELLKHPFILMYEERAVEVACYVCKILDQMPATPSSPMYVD
Experimental: as §1, §2

[20] = target: T19, RET (Homo sapiens, UniProt P07949); conditions: read-out: % control
T19 construct: purchased Eurofins scanMax kinase panel
T19 sequence (P07949 29-1114): as the sequence (P07949 29-1114 V804M) above, with M776V counted along it
Experimental: as §1, §2

[21] = target: T20, HASPIN (Homo sapiens, UniProt Q8TF76); conditions: read-out: % control
T20 construct: purchased Eurofins scanMax® kinase panel
Experimental: as §1, §2

[22] = target: T21, IRAK4 (Homo sapiens, UniProt Q9NWZ3); conditions: IRAK4, 1 μM; read-out: % control
T21 construct: purchased Eurofins
Experimental: as §1, §2

[23] = target: T22, MEK2 (Homo sapiens, UniProt P36507); conditions: MEK2, 1 μM; read-out: % control
T22 construct: purchased Eurofins
Experimental: as §1, §2

[24] = target: T23, MEK3 (Homo sapiens, UniProt P46734); conditions: MEK3, 1 μM; read-out: % control
T23 construct: purchased Eurofins
Experimental: as §1, §2

[25] = target: T24, ABL1-nonphosphorylated (Homo sapiens, UniProt P00519); conditions: read-out: % control
T24 construct: purchased Eurofins
Experimental: as §1, §2

[26] = target: T25, MEK5 (Homo sapiens, UniProt Q13163); conditions: MEK5, 1 μM; read-out: % control
T25 construct: purchased Eurofins scanMax kinase panel
Experimental: as §1, §2

[27] = target: T26, ABL1(H396P)-phosphorylated (Homo sapiens, UniProt P00519, H396P); conditions: read-out: % control
T26 construct: purchased Eurofins
Experimental: as §1, §2

[28] = target: T27, ERK1 (Homo sapiens, UniProt P27361); conditions: ERK1, 1 μM; read-out: % control
T27 construct: purchased Eurofins scanMax® kinase panel
Experimental: as §1, §2

[29] = target: T28, ABL1(T315I)-nonphosphorylated (Homo sapiens, UniProt P00519, T315I); conditions: read-out: % control
T28 construct: purchased Eurofins
Experimental: as §1, §2

[30] = target: T29, ARK5 (Homo sapiens, UniProt O60285); conditions: ARK5, 1 μM; read-out: % control
T29 construct: purchased Eurofins
T29 sequence (O60285 whole entry): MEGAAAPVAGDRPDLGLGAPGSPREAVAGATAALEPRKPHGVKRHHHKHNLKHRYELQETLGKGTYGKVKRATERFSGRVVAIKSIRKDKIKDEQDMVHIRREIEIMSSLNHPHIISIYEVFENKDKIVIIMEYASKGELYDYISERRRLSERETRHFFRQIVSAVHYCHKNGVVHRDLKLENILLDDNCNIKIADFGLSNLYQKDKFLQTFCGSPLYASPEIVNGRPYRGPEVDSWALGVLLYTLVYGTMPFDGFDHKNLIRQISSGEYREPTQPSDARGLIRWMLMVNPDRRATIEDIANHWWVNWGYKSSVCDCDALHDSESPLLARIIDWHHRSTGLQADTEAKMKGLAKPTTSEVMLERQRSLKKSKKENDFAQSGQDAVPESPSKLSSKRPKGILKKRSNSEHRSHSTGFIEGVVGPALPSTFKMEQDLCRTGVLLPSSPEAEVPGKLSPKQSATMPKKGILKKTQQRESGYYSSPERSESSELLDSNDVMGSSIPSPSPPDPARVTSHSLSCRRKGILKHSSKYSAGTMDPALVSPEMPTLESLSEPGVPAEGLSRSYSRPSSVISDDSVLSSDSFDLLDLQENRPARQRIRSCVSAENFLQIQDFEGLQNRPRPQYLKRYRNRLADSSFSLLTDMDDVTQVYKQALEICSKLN
Experimental: as §1, §2

[31] = target: T30, ABL1(Q252H)-nonphosphorylated (Homo sapiens, UniProt P00519, Q252H); conditions: read-out: % control
T30 construct: purchased Eurofins
Experimental: as §1, §2

[32] = target: T31, PAK2 (Homo sapiens, UniProt Q13177); conditions: PAK2, 1 μM; read-out: % control
T31 construct: purchased Eurofins scanMax kinase panel
Experimental: as §1, §2

[33] = target: T32, ABL1(T315I)-phosphorylated (Homo sapiens, UniProt P00519, T315I); conditions: read-out: % control
T32 construct: purchased Eurofins
Experimental: as §1, §2

[34] = target: T33, MAP3K1 (Homo sapiens, UniProt Q13233); conditions: MAP3K1, 1 μM; read-out: % control
T33 construct: purchased Eurofins
Experimental: as §1, §2

T1 sequence (P10721 26-976 D816V): as the sequence (P10721 26-976 D816H) above, with H791V counted along it

**Q.** What does the source list for `COc1ccc2nc(-c3n[nH]c4ccc(C(=O)N[C@H]5CC[C@H](N)C5)cc34)[nH]c2c1` [Example 32, N-((1S,3S)-3-aminocyclopentyl)-3-(6-methoxy-1H-benzo[d]imidazol-2-yl)-1H-indazole-5-carboxamide]?
**A.** remaining binding at 1 µM [1]: < 10%; remaining binding at 1 µM [2]: < 10%; remaining binding at 1 µM [3]: < 10%; remaining binding at 1 µM [4]: < 10%; remaining binding at 1 µM [5]: < 10%; remaining binding at 1 µM [6]: < 10%; remaining binding at 1 µM [7]: < 10%; remaining binding at 1 µM [8]: < 10%; remaining binding at 1 µM [9]: < 10%; remaining binding at 1 µM [10]: < 10%; % control [11]: less than 10 % control; remaining binding at 1 µM [12]: < 10%; remaining binding at 1 µM [13]: < 10%; remaining binding at 1 µM [14]: < 10%; remaining binding at 1 µM [15]: < 10%; remaining binding at 1 µM [16]: < 10%; remaining binding at 1 µM [17]: < 10%; remaining binding at 1 µM [18]: < 10%; remaining binding at 1 µM [19]: < 10%; remaining binding at 1 µM [20]: < 10%; remaining binding at 1 µM [21]: < 10%; remaining binding at 1 µM [22]: < 10%; remaining binding at 1 µM [23]: < 10%; remaining binding at 1 µM [24]: < 10%; remaining binding at 1 µM [25]: < 10%; remaining binding at 1 µM [26]: < 10%; remaining binding at 1 µM [27]: < 10%; remaining binding at 1 µM [28]: < 10%; remaining binding at 1 µM [29]: < 10%; remaining binding at 1 µM [30]: < 10%; remaining binding at 1 µM [31]: < 10%; remaining binding at 1 µM [32]: < 10%; remaining binding at 1 µM [33]: < 10%; remaining binding at 1 µM [34]: < 10%

— US20260234129A1, “NOVEL IMIDAZOLE DERIVATIVE AND USE THEREOF” (PELEMED CO., LTD., priority 2023, published 2026)
